Results on five molecules are retold here after ChEMBL document CHEMBL4145497, “Discovery of 2-aminothiazolyl berberine derivatives as effectively antibacterial agents toward clinically drug-resistant Gram-negative Acinetobacter baumanii” (Eur J Med Chem, 2018).

Common to all, as to type: functional
One test concerns Candida parapsilosis. In words: Antifungal activity against Candida parapsilosis ATCC 22019 by CLSI two fold serial dilution method. Conditions: Lodderomyces parapsilosis.
In a further test the test system is Candida tropicalis. Kind of test: Antifungal activity against drug-resistant Candida tropicalis by CLSI two fold serial dilution method.
A further test relates to Micrococcus luteus. Kind of test: Antibacterial activity against Micrococcus luteus ATCC 4698 after 18 to 24 hrs by CLSI two fold serial dilution method.
A further test concerns Enterococcus faecalis. In words: Antibacterial activity against drug-resistant Enterococcus faecalis after 18 to 24 hrs by CLSI two fold serial dilution method.
Another test concerns Cyberlindnera jadinii. Kind of test: Antifungal activity against Candida utilis ATCC 9950 by CLSI two fold serial dilution method. Conditions: Williopsis jadinii.
For a further test, the system named is Aspergillus fumigatus. Kind of test: Antifungal activity against drug-resistant Aspergillus fumigatus by CLSI two fold serial dilution method.
A further test deals with Aspergillus flavus. In words: Antifungal activity against Aspergillus flavus ATCC 204304 by CLSI two fold serial dilution method.
The test system of a further test is Bacillus subtilis. In words: Antibacterial activity against Bacillus subtilis ATCC 21216 after 18 to 24 hrs by CLSI two fold serial dilution method.
The subject of test [1] is Pseudomonas aeruginosa. In words: Antibacterial activity against Pseudomonas aeruginosa ATCC 27853 after 18 to 24 hrs by CLSI two fold serial dilution method.
Test [2] relates to Pseudomonas aeruginosa. Kind of test: Antibacterial activity against drug-resistant Pseudomonas aeruginosa after 18 to 24 hrs by CLSI two fold serial dilution method.
The test system of test [3] is Candida albicans. In words: Antifungal activity against drug-resistant Candida albicans by CLSI two fold serial dilution method.
Test [4] deals with Escherichia coli. In words: Antibacterial activity against Escherichia coli DH52 after 18 to 24 hrs by CLSI two fold serial dilution method.
A further test relates to Klebsiella pneumoniae. Kind of test: Antibacterial activity against drug-resistant Klebsiella pneumoniae after 18 to 24 hrs by CLSI two fold serial dilution method.
The test system of test [5] is Escherichia coli. Kind of test: Antibacterial activity against drug-resistant Escherichia coli after 18 to 24 hrs by CLSI two fold serial dilution method.
The next test has as its system Acinetobacter baumannii. Kind of test: Antibacterial activity against drug-resistant Acinetobacter baumannii after 18 to 24 hrs by CLSI two fold serial dilution method.
The test system of another test is Saccharomyces cerevisiae. Kind of test: Antifungal activity against Saccharomyces cerevisiae ATCC 9763 by CLSI two fold serial dilution method.
Test [6] deals with Staphylococcus aureus. Kind of test: Antibacterial activity against Staphylococcus aureus ATCC 25923 after 18 to 24 hrs by CLSI two fold serial dilution method.
The test system of test [7] is Staphylococcus aureus. In words: Antibacterial activity against methicillin-resistant Staphylococcus aureus N315 after 18 to 24 hrs by CLSI two fold serial dilution method.
In test [8] the test system is Candida albicans. Kind of test: Antifungal activity against Candida albicans ATCC 76615 by CLSI two fold serial dilution method.
Another test relates to Pichia norvegensis. In words: Antifungal activity against Candida mycoderma ATCC 96918 by CLSI two fold serial dilution method.

Values after ≈ are worked out from the molar mass of the structure shown.

What is called MIC is the least concentration at which growth counts as inhibited. Higher therefore signals a less susceptible organism. In the case of `CCCCCCCCOc1c(OC)cc(/C=N/NC(N)=S)c2c1CN1CCc3cc4c(cc3C1C2)OCO4` (stereo not given), the MIC was 120 µM (≈ 64.6 µg/mL) against Candida parapsilosis; 120 µM (≈ 64.6 µg/mL) against Candida tropicalis; 240 µM (≈ 129 µg/mL) in the test on Micrococcus luteus; 120 µM (≈ 64.6 µg/mL) against Enterococcus faecalis; 240 µM (≈ 129 µg/mL) in the test with Cyberlindnera jadinii; 60 µM (≈ 32.3 µg/mL) against Aspergillus fumigatus. In addition, the MIC against Aspergillus flavus worked out at 240 µM (≈ 129 µg/mL); in the test with Bacillus subtilis, 240 µM (≈ 129 µg/mL); in the test with Pseudomonas aeruginosa [1], 120 µM (≈ 64.6 µg/mL); with Pseudomonas aeruginosa [2], 120 µM (≈ 64.6 µg/mL); in the test with Candida albicans [3] it was 240 µM (≈ 129 µg/mL); against Escherichia coli [4] it was 240 µM (≈ 129 µg/mL). Further, the minimal inhibitory concentration (MIC) against Klebsiella pneumoniae worked out at 240 µM (≈ 129 µg/mL); with Escherichia coli [5], 240 µM (≈ 129 µg/mL); in the test with Acinetobacter baumannii it was 240 µM (≈ 129 µg/mL); in the test with Saccharomyces cerevisiae, 480 µM (≈ 259 µg/mL); with Staphylococcus aureus [6], 60 µM (≈ 32.3 µg/mL); against Staphylococcus aureus [7] it was 120 µM (≈ 64.6 µg/mL). The MIC in the test with Candida albicans [8] and against Pichia norvegensis was 240 µM (≈ 129 µg/mL) in each case.
With `COc1cc(/C=N/NC(N)=S)c2c(c1OCc1ccc(Cl)cc1Cl)CN1CCc3cc4c(cc3C1C2)OCO4` (stereo not given), the MIC came out at 10 µM (≈ 5.86 µg/mL) against Candida parapsilosis; 220 µM (≈ 129 µg/mL) against Candida tropicalis; 110 µM (≈ 64.4 µg/mL) against Micrococcus luteus; 440 µM (≈ 258 µg/mL) against Enterococcus faecalis; 440 µM (≈ 258 µg/mL) in the test with Cyberlindnera jadinii; 110 µM (≈ 64.4 µg/mL) against Aspergillus fumigatus. The MIC against Aspergillus flavus is 440 µM (≈ 258 µg/mL); against Bacillus subtilis, 220 µM (≈ 129 µg/mL); in the test with Pseudomonas aeruginosa [1], 220 µM (≈ 129 µg/mL); against Pseudomonas aeruginosa [2] it was 220 µM (≈ 129 µg/mL); against Candida albicans [3], 110 µM (≈ 64.4 µg/mL); in the test with Escherichia coli [4], 440 µM (≈ 258 µg/mL). In addition, the minimal inhibitory concentration (MIC) in the test with Klebsiella pneumoniae turned out to be 220 µM (≈ 129 µg/mL); in the test on Escherichia coli [5], 440 µM (≈ 258 µg/mL); in the test with Acinetobacter baumannii, 3 µM (≈ 1.76 µg/mL); against Saccharomyces cerevisiae it was 880 µM (≈ 515 µg/mL); against Staphylococcus aureus [6], 110 µM (≈ 64.4 µg/mL); against Staphylococcus aureus [7], 110 µM (≈ 64.4 µg/mL). Moreover, the MIC with Candida albicans [8] came out at 110 µM (≈ 64.4 µg/mL); against Pichia norvegensis, 220 µM (≈ 129 µg/mL).
On to `COc1cc(/C=N/NC(N)=S)c2c(c1O)CN1CCc3cc4c(cc3C1C2)OCO4` (stereo not given), for which the MIC against Candida parapsilosis is 9 µM (≈ 3.84 µg/mL); against Candida tropicalis, 300 µM (≈ 128 µg/mL); in the test with Micrococcus luteus it was 300 µM (≈ 128 µg/mL); against Enterococcus faecalis, 300 µM (≈ 128 µg/mL); in the test on Cyberlindnera jadinii, 600 µM (≈ 256 µg/mL); against Aspergillus fumigatus, 150 µM (≈ 64 µg/mL). Moreover, the MIC worked out at 600 µM (≈ 256 µg/mL) against Aspergillus flavus; 300 µM (≈ 128 µg/mL) against Bacillus subtilis; 150 µM (≈ 64 µg/mL) in the test with Pseudomonas aeruginosa [1]; 150 µM (≈ 64 µg/mL) in the test on Pseudomonas aeruginosa [2]; 300 µM (≈ 128 µg/mL) with Candida albicans [3]; 300 µM (≈ 128 µg/mL) with Escherichia coli [4]. In addition, the MIC turned out to be 150 µM (≈ 64 µg/mL) against Klebsiella pneumoniae; 600 µM (≈ 256 µg/mL) in the test on Escherichia coli [5]; 150 µM (≈ 64 µg/mL) in the test with Acinetobacter baumannii; 300 µM (≈ 128 µg/mL) against Saccharomyces cerevisiae; 150 µM (≈ 64 µg/mL) against Staphylococcus aureus [6]; 150 µM (≈ 64 µg/mL) against Staphylococcus aureus [7]. For the same molecule, the MIC against Candida albicans [8] came out at 150 µM (≈ 64 µg/mL); with Pichia norvegensis it was 300 µM (≈ 128 µg/mL).
For the molecule `COc1cc(/C=N/NC(N)=S)c2c(c1OCc1ccccc1F)CN1CCc3cc4c(cc3C1C2)OCO4` (stereo not given), the MIC amounted to 240 µM (≈ 128 µg/mL) in the test on Candida parapsilosis; 120 µM (≈ 64.2 µg/mL) against Candida tropicalis; 240 µM (≈ 128 µg/mL) in the test with Micrococcus luteus; 240 µM (≈ 128 µg/mL) in the test with Enterococcus faecalis; 480 µM (≈ 257 µg/mL) in the test on Cyberlindnera jadinii; 4 µM (≈ 2.14 µg/mL) in the test with Aspergillus fumigatus. Further, the MIC worked out at 480 µM (≈ 257 µg/mL) in the test with Aspergillus flavus; 240 µM (≈ 128 µg/mL) with Bacillus subtilis; 480 µM (≈ 257 µg/mL) in the test with Pseudomonas aeruginosa [1]; 480 µM (≈ 257 µg/mL) in the test on Pseudomonas aeruginosa [2]; 480 µM (≈ 257 µg/mL) in the test with Candida albicans [3]; 240 µM (≈ 128 µg/mL) in the test on Escherichia coli [4]. Besides, the minimum inhibitory concentration (MIC) stood at 480 µM (≈ 257 µg/mL) against Klebsiella pneumoniae; 240 µM (≈ 128 µg/mL) in the test with Escherichia coli [5]; 4 µM (≈ 2.14 µg/mL) against Acinetobacter baumannii; 960 µM (≈ 513 µg/mL) against Saccharomyces cerevisiae; 30 µM (≈ 16 µg/mL) against Staphylococcus aureus [6]; 30 µM (≈ 16 µg/mL) against Staphylococcus aureus [7]. For the same molecule, the figures for the MIC against Candida albicans [8] and in the test on Pichia norvegensis were 480 µM (≈ 257 µg/mL) and 240 µM (≈ 128 µg/mL), respectively.
For `COc1cc(/C=N/NC(N)=S)c2c(c1OCc1ccc(F)cc1)CN1CCc3cc4c(cc3C1C2)OCO4` (stereo not given), the minimal inhibitory concentration (MIC) was 60 µM (≈ 32.1 µg/mL) against Candida parapsilosis; 120 µM (≈ 64.2 µg/mL) against Candida tropicalis; 480 µM (≈ 257 µg/mL) against Micrococcus luteus; 120 µM (≈ 64.2 µg/mL) against Enterococcus faecalis; 480 µM (≈ 257 µg/mL) in the test on Cyberlindnera jadinii; 120 µM (≈ 64.2 µg/mL) in the test with Aspergillus fumigatus. In addition, the MIC in the test on Aspergillus flavus worked out at 480 µM (≈ 257 µg/mL); against Bacillus subtilis, 480 µM (≈ 257 µg/mL); in the test with Pseudomonas aeruginosa [1] it was 240 µM (≈ 128 µg/mL); with Pseudomonas aeruginosa [2], 240 µM (≈ 128 µg/mL); against Candida albicans [3] it was 120 µM (≈ 64.2 µg/mL); in the test on Escherichia coli [4] it was 240 µM (≈ 128 µg/mL). Moreover, the MIC against Klebsiella pneumoniae turned out to be 480 µM (≈ 257 µg/mL); in the test with Escherichia coli [5] it was 240 µM (≈ 128 µg/mL); against Acinetobacter baumannii it was 8 µM (≈ 4.28 µg/mL); against Saccharomyces cerevisiae it was 240 µM (≈ 128 µg/mL); in the test with Staphylococcus aureus [6], 120 µM (≈ 64.2 µg/mL); in the test on Staphylococcus aureus [7], 120 µM (≈ 64.2 µg/mL). Besides, the MIC in the test with Candida albicans [8] turned out to be 120 µM (≈ 64.2 µg/mL); in the test on Pichia norvegensis it was 240 µM (≈ 128 µg/mL).
